The assay addresses NADH-ubiquinone oxidoreductase chain 1 (Bos taurus, UniProt P03887). Description: Inhibition of bovine heart mitochondrial complex 1.

Chain of NADH-ubiquinone oxidoreductase chain 1 (P03887 whole entry): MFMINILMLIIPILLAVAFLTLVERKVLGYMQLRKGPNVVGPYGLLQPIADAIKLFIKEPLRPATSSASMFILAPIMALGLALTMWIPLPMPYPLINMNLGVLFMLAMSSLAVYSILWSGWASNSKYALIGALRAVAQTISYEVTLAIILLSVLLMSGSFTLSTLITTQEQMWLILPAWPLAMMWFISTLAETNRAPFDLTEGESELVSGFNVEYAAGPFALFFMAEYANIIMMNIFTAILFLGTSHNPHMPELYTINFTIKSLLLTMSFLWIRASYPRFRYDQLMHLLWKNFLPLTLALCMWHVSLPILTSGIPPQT

In the case of `CCCCCCCCCCCC[C@@H](O)[C@H]1CC[C@H]([C@H](O)CCCCCCCCCCCCC2=C[C@H](CF)OC2=O)O1`, the IC50 was found to be 2.9 nM. `CCCCCCCCCCCC[C@@H](O)[C@H]1CC[C@H]([C@H](O)CCCCCCCCCCCCC2=C[C@H](C(F)F)OC2=O)O1`: inhibition was half-maximal at 31 nM (IC50).

Consider `CCCCCCCCCCCC[C@@H](O)[C@H]1CC[C@H]([C@H](O)CCCCCCCCCCCCC2=C[C@H](C(F)(F)F)OC2=O)O1`, for which half-maximal inhibition (IC50) required 310 nM.

With `CCCCCCCCCCCC[C@@H](O)[C@H]1CC[C@H]([C@H](O)CCCCCCCCCCCCC2=C[C@@H](C)OC2=O)O1`, the IC50 worked out at 270 nM. In the case of `CCCCCCCCCCCC[C@@H](O)[C@H]1CC[C@H]([C@H](O)CCCCCCCCCCCCC2=C[C@@H](C(F)(F)F)OC2=O)O1` it was 570 nM; in that of `CCCCCCCCCCCC[C@@H](O)[C@H]1CC[C@H]([C@H](O)CCCCCCCCCCCCC2=C[C@H](C)OC2=O)O1` [REL-SOLAMIN], 2.1 nM.
